ChEMBL document CHEMBL1141167, “Antitumor activity of new substituted 3-(5-imidazo[2,1-b]thiazolylmethylene)-2-indolinones and study of their effect on the cell cycle” (2005)
“And” between values parts separate entries of the source, which are not always exact repeats. Equal entries are not always repeated.

Experiments:
Breast carcinoma cell [1] = assay: Growth inhibitory concentration dissolved in DMSO against human Breast cell line at 10E-4 M concentration; type: functional
Ovarian carcinoma cell [2] = assay: Cytotoxic effect dissolved in DMSO against Ovarian cell line at 10E-4 M concentration; type: functional, Homo sapiens
Renal cell [3] = assay: Cytotoxic effect dissolved in DMSO against Renal cell line at 10E-4 M concentration; type: functional, Homo sapiens
HT-29 [4] = assay: Percentage of Cells after administration of compound dissolved in DMSO (10e-6 M) towards colon adenocarcinoma cell line HT-29 in G2/M Phase after 24 Hours of Treatment [control = 10]; type: functional, Homo sapiens
Prostate cell [5] = assay: Total growth inhibition of human Prostate cell line at 10E-4 M concentration; type: functional
Renal cell [6] = assay: Growth inhibitory concentration dissolved in DMSO against human Renal cell line at 10E-4 M concentration; type: functional; parameters: unit not given here
NSCLC [7] = assay: Growth inhibitory concentration dissolved in DMSO against human NSCLC cell line at 10E-4 M concentration; type: functional; parameters: unit not given here
Colon cell [8] = assay: Growth inhibitory concentration dissolved in DMSO against human Colon cell line at 10E-4 M concentration; type: functional
Melanoma cell [9] = assay: Cytotoxic effect dissolved in DMSO against Melanoma cell line at 10E-4 M concentration; type: functional, Homo sapiens
Colon cell [10] = assay: Total growth inhibition of human Colon cell line at 10E-4 M concentration; type: functional; parameters: unit not given here
Prostate cell [11] = assay: Growth inhibitory concentration dissolved in DMSO against human Prostate cell line at 10E-4 M concentration; type: functional
Prostate cell [12] = assay: Cytotoxic effect dissolved in DMSO against Prostate cell line at 10E-4 M concentration; type: functional, Homo sapiens
CNS cell [13] = assay: Growth inhibitory concentration dissolved in DMSO against human CNS cell line at 10E-4 M concentration; type: functional
NSCLC [14] = assay: Total growth inhibition of human NSCLC cell line at 10E-4 M concentration; type: functional
Colon cell [15] = assay: Cytotoxic effect dissolved in DMSO against Colon cell line at 10E-4 M concentration; type: functional, Homo sapiens
Ovarian carcinoma cell [16] = assay: Growth inhibitory concentration dissolved in DMSO against human Ovarian cell line at 10E-4 M concentration; type: functional
HT-29 [17] = assay: Percentage of Cells after administration of compound dissolved in DMSO (10e-8 M) towards colon adenocarcinoma cell line HT-29 in G2/M Phase after 24 Hours of Treatment [control = 10]; type: functional, Homo sapiens
HT-29 [18] = assay: Percentage of Cells after administration of compound dissolved in DMSO (10e-4 M) towards colon adenocarcinoma cell line HT-29 in G2/M Phase after 24 Hours of Treatment [control = 10]; type: functional, Homo sapiens
HT-29 [19] = assay: Percentage of Cells after administration of compound dissolved in DMSO (10e-5 M) towards colon adenocarcinoma cell line HT-29 in G2/M Phase after 24 Hours of Treatment [control = 10]; type: functional, Homo sapiens
Melanoma cell [20] = assay: Total growth inhibition of human Melanoma cell line at 10E-4 M concentration; type: functional
Breast carcinoma cell [21] = assay: Cytotoxic effect dissolved in DMSO against Breast cell line at 10E-4 M concentration; type: functional, Homo sapiens
Melanoma cell [22] = assay: Growth inhibitory concentration dissolved in DMSO against human Melanoma cell line at 10E-4 M concentration; type: functional
NSCLC [23] = assay: Cytotoxic effect dissolved in DMSO against NSCLC cell line at 10E-4 M concentration; type: functional, Homo sapiens
[24] = tested on: Panel NCI-60 (60 carcinoma cell lines); assay: Total growth inhibition of human MG-MID cell line at 10E-4 M concentration; type: functional
CNS cell [25] = assay: Cytotoxic effect dissolved in DMSO against CNS cell line at 10E-4 M concentration; type: functional, Homo sapiens
HT-29 [26] = assay: Percentage of Cells after administration of compound dissolved in DMSO (10e-7M) towards colon adenocarcinoma cell line HT-29 in G2/M Phase after 24 Hours of Treatment [control = 10]; type: functional, Homo sapiens
[27] = tested on: Panel NCI-60 (60 carcinoma cell lines); assay: Growth inhibitory concentration dissolved in DMSO against human MG-MID cell line at 10E-4 M concentration; type: functional
Ovarian carcinoma cell [28] = assay: Total growth inhibition of human Ovarian cell line at 10E-4 M concentration; type: functional
[29] = tested on: Panel NCI-60 (60 carcinoma cell lines); assay: Cytotoxic effect dissolved in DMSO against MG-MID cell line at 10E-4 M concentration; type: functional, Homo sapiens
Breast carcinoma cell [30] = assay: Total growth inhibition of human Breast cell line at 10E-4 M concentration; type: functional

| Compound | pGI50 (-log GI50, M) (Breast carcinoma cell [1]) | LC50 (Ovarian carcinoma cell [2]) | TGI (Prostate cell [5]) | GI50 (Renal cell [6]) | GI50 (NSCLC [7]) | pGI50 (negative log of molar GI50) (Colon cell [8]) | LC50 (Melanoma cell [9]) | TGI (Colon cell [10]) | pGI50 (negative log molar GI50) (Prostate cell [11]) | pGI50 (-log GI50, M) (CNS cell [13]) | TGI (NSCLC [14]) | LC50 (Colon cell [15]) | pGI50 (negative log of GI50 in M) (Ovarian carcinoma cell [16]) | TGI (Melanoma cell [20]) | LC50 (Breast carcinoma cell [21]) | pGI50 (-log molar GI50) (Melanoma cell [22]) | TGI [24] | GI50 [27] | TGI (Ovarian carcinoma cell [28]) | LC50 [29] | also measured |
| --- | --- | --- | --- | --- | --- | --- | --- | --- | --- | --- | --- | --- | --- | --- | --- | --- | --- | --- | --- | --- | --- |
| Cc1cn2c(/C=C3/C(=O)Nc4ccc(Cl)cc43)c(C)nc2s1 | 6.51 | 4.3 | 5.62 | 6.54 | 6.17 | 6.72 | 4.06 | 5.06 and 5.08 | 6.98 | 6.13 | 4.65 | 4.34 | 5.91 | 4.6 | 4.02 | 6.21 | 4.81 | -6.42 | 4.82 | 4.15 | LC50 (Renal cell [3]): 4.06; Activity (HT-29 [4]): 72%; LC50 (Prostate cell [12]): 4.36; Activity (HT-29 [17]): 11.1%; Activity (HT-29 [18]): 61.6%; Activity (HT-29 [19]): 86.2%; LC50 (NSCLC [23]): 4.16; LC50 (CNS cell [25]): 4.16; Activity (HT-29 [26]): 9.7%; TGI (Breast carcinoma cell [30]): 4.85 |
| COc1ccc2c(c1)/C(=C\c1c(C)nc3sc(C)cn13)C(=O)N2C | 5.6 | 4.02 | 4.1 | 5.32 | 5.11 | 5.49 | 4.13 | 4.55 and 4.59 | 5.06 | 5.46 | 4.4 | 4.09 | 5.16 | 4.45 | 4.03 | 5.26 | 4.46 | 5.35 | 4.42 | 4.03 | TGI (Breast carcinoma cell [30]): 4.87 |
